Data set [1] has as its system HUVEC. The data set is described as follows: Inhibition of VEGF-induced HUVEC proliferation at 25 nM to 2.5 uM incubated for 30 mins prior to VEGF challenge measured after 24 hrs by fluorescence assay. It counts as functional, cell-based. As to conditions: Homo sapiens.
In data set [2] the test system is HUVEC. The data set is described as follows: Antimigratory activity in VEGF-induced HUVEC assessed as decrease in cell migration at 25 nM to 2.5 uM incubated for 30 mins prior to VEGF challenge measured after 24 hrs by Transwell assay. It counts as functional, cell-based. To be noted: Homo sapiens.
The test system of data set [3] is HUVEC. The data set is described as follows: Antiadhesive activity in HUVEC assessed as decrease in cell adhesion at 25 nM to 2.5 uM after 24 hrs by crystal violet staining technique. As to conditions: Homo sapiens. It counts as functional, cell-based.
For data set [4], the system named is HUVEC. The data set is described as follows: Cytotoxicity against HUVEC assessed as cell viability at 25 nM to 2.5 uM after 24 to 48 hrs by MTT assay. It counts as cell-based. As to conditions: human, 0.025 µM.
Data set [5] relates to HUVEC. As to the kind of experiment: Antiangiogenic activity in HUVEC assessed as inhibition of VEGF-induced capillary network formation at 25 nM to 2.5 uM after 24 hrs by matrigel assay. It is filed as functional, cell-based. To be noted: Homo sapiens.
For data set [6], the system named is HUVEC. As to the kind of experiment: Antimigratory activity in VEGF-induced HUVEC assessed as decrease in cell migration at 2.5 uM incubated for 30 mins prior to VEGF challenge measured after 24 hrs by Transwell assay. It counts as functional, cell-based. To be noted: Homo sapiens.

The source made the active and inactive calls. No cut-off for these calls is given here.

In the case of `C/C(=C\CC/C(C)=C/CC[C@]1(C)CCc2cc(O)c(C)c(C)c2O1)CCC=C(CO)CO`, the inhibition entry in the data set on HUVEC [1] is “Active”. The outcome with HUVEC [2] and in the data set with HUVEC [3] was inactive. In the data set with HUVEC [4], the Activity entry is listed as “Non-toxic”. For the same molecule, the outcome in the data set with HUVEC [5] was Active.

Regarding `C/C(=C\CC/C(C)=C/CC[C@]1(C)CCc2cc(O)cc(C)c2O1)CCC=C(CO)CO`, the inhibition entry in the data set on HUVEC [1] was “Active”. In addition, the result in the data set on HUVEC [3], in the data set on HUVEC [6] and with HUVEC [5] was Active. Besides, the Activity result in the data set with HUVEC [4] was “Non-toxic”.

These data come from ChEMBL document CHEMBL3091316, “Antiangiogenic tocotrienol derivatives from Garcinia amplexicaulis” (J Nat Prod, 2013).
